Reference: patent publication US7345026B2, “Hybrid or chimeric polynucleotides, proteins, and compositions comprising hepatitis B virus sequences” (Institut Pasteur, priority 1999, dated 2008)
Where “and” joins values, the source holds several entries; their conditions need not be identical. Equal values may be shown once. Entries after “also recorded” stand apart in the source; their conditions may differ. Read-outs that look alike come from different tables or passages of the source.

Assays:
[1] = tested on: HHD-transfected RMA-S cells loaded with relevant peptides; design: species or system A2A2Kb mice; conditions: in vivo, sc
[2] = tested on: peptide-loaded HHD-transfected RMA-S cells; design: species or system HHD mice; conditions: mouse, in vivo
[3] = tested on: HHD-transfected RMA-S cells loaded with relevant peptides; design: species or system HHD mice; conditions: in vivo
[4] = tested on: HHD-transfected RMA-S target cells loaded with relevant peptides; design: species or system HHD mice; conditions: mouse, in vivo
[5] = target: HLA-A2.1 molecules (Homo sapiens, UniProt P04439, D140Y/D185E/D98H/E176V/E277Q/G131W/G231S/I119V/I121R/I166T/I218V/L300P/L318F/N151K/N90K/P208A/P217A/Q86G/Q94H/R138H/R169H/T345S)
[6] = tested on: HHD-transfected RMAS cells loaded with relevant peptides; design: species or system HHD mice; conditions: mouse, in vivo
[7] = tested on: HHD-transfected RMAS cells loaded with relevant peptides; design: species or system HHD mice; conditions: mouse, in vivo, iv
[8] = tested on: HHD-transfected RMAS cells loaded with relevant peptides; design: species or system HHD mice; conditions: mouse, in vivo; remark: listed apart in the source

Sequence | CTL response against the epitope after polyepitope immunization (in words) [2] | CTL inducer hierarchy (in words) ([3]; mouse) | lysis in % [4] | CTL response when co-injected with helper peptide (in words) [4] | also measured
VLYRYGSFSV (listed as Homo sapiens) [gp100.476] | did not elicit CTL responses | weak | (20, 22, 59, 63, 75, 79) % | – | lysis in % (maximal lysis observed for each responder mouse) [1]: (29) %; lysis in % (maximal lysis observed for each responder mouse) ([3]; sc): (54, 70) %
MLLAVLYCL (listed as Homo sapiens) [Tyrosinase.1] | No specific lysis; also recorded: did not elicit CTL responses | inefficient | (27, 33, 40, 42, 51) % | good CTL responses in a large proportion of mice | –
YMNGTMSOV (YMNGTMSV; listed as Homo sapiens) [Tyrosinase.368-N] | – | intermediate | (21, 36, 70, 72, 78) % | – | R/T (responder versus tested mice) ([1]; mouse): 0/6; R/T (responder versus tested mice) ([3]; mouse, sc): 4/15; RA (relative affinity) [5]: 2.2; R/T (responder versus tested mice) ([4]; sc): 5/12
YMDGTMSQV [Tyrosinase.368-D] | elicited CTL responses depending on mice | weak | (13, 15) % | – | CTL responses (in words) [6]: Some responses of weak to strong magnitude; lysis in % (maximal lysis observed for each responder mouse) ([3]; sc): (10) %
IISAVVGIL (listed as Homo sapiens) [Her2/neu.654] | – | weak | – | – | lysis in % (maximal lysis observed for each responder mouse) ([3]; sc): (42) %
RMPEAAPPV (listed as Homo sapiens) [p53.65] | – | intermediate | (29, 31, 40, 41, 55) % | stronger responses in a larger proportion of mice | –
VLPDVFIRC (listed as Homo sapiens) [NA17-A.nt38] | Strong responses | intermediate | (36, 39, 61,64, 71) % | stronger responses in a larger proportion of mice | lysis in % (highest specific lysis) [7]: 0 (6) % and 3 (5) % and 5 (24) % and 3 (9) % and 6 (7) % and 0 (2) %; lysis in % following a second in vitro restimulation (numbers in parentheses) [7]: 0 (6) % and 3 (5) % and 5 (24) % and 3 (9) % and 6 (7) % and 0 (2) %
TLGIVCPI (listed as Homo sapiens) [HPV E7.86] | – | inefficient | (34, 48) % | – | lysis in % (maximal lysis observed for each responder mouse) [1]: (10, 13) %
YLEPGPVTA [gp100.280] | No specific lysis; also recorded: did not elicit CTL responses | weak | (12, 16) % | – | lysis in % (highest specific lysis) [7]: 0 (1) % and 0 (0) %; lysis in % following a second in vitro restimulation (numbers in parentheses) [7]: 0 (1) % and 0 (0) %; CTL responses (in words) [6]: Some responses of weak to strong magnitude; CTL responses (in words) [8]: Some responses of weak to strong magnitude
ITDQVPFSV [gp100.209] | – | weak | (31, 36, 56) % | – | lysis in % (maximal lysis observed for each responder mouse) ([3]; sc): (23) %
LLDGTATLRL [gp100.457] | Significant responses | inefficient | (14, 35, 43, 77, 79) % | good CTL responses in a large proportion of mice; also recorded: strong CTL-inducers when associated with a helper peptide | –
KTWGQYWQV [gp100.154] | Strong responses | strong | (43, 59, 60, 64, 77. 77, 80, 82, 85) % | stronger responses in a larger proportion of mice | –
LLGRNSFEV (listed as Homo sapiens) [p53.264] | – | inefficient; also recorded: poor CTL-induction capacity | (37, 64) % | – | –
YLSGANLNL (listed as Homo sapiens) [CEA.571] | – | strong | (20, 32, 46) % | less immunogenic | lysis in % (highest specific lysis) [7]: 4 (1) % and 1 (5) % and 1 (2) % and 0 (0) % and 2 (0) % and 4 (22) %; lysis in % following a second in vitro restimulation (numbers in parentheses) [7]: 4 (1) % and 1 (5) % and 1 (2) % and 0 (0) % and 2 (0) % and 4 (22) %
STPPPGTRV (listed as Homo sapiens) [p53.149] | – | inefficient | (20, 51, 71) % | – | –
ILTVILGVL (listed as Homo sapiens) [Melan-A/MART-1.32] | No specific lysis; also recorded: did not elicit CTL responses | inefficient | – | – | –
